As usually defined, the IC50 is the concentration that inhibits the measured activity by half. What is called Aqueous Solubility is the dissolved amount per volume that the medium holds. Low values mean little dissolved substance, high ones much dissolved substance. As a reminder, the pKa is the pH at which an ionisable group is half protonated. Low readings indicate a group that gives up its proton readily, high ones a group that holds its proton tightly. In general, Papp A→B refers to the apparent permeability from the apical to the basolateral side of a cell layer. A high value points to ready permeation.

The record followed here is patent publication US11168081B2, “Alkaloid derivative having angiogenesis inhibitory effect, and pharmaceutical composition containing same” (SEOUL NATIONAL UNIVERSITY R&DB FOUNDATION, priority 2017, dated 2021).

For series [1], the system named is Transgenic zebrafish (flk:EGFP) embryos. Kind of series: Animal model angiogenesis inhibition assay (diabetic retinopathy). In kind it is in vivo. The note with it: zebrafish larvae. How it is done:
Transgenic zebrafish (flk:EGFP) embryos were provided by the Korea Zebrafish Oraganogenesis Muatant Bank (ZOMB, Daegu, Korea). The zebrafish embryos (3 dpf) were placed in a 12-well plate with 130 mM glucose embryonic H2O and various concentrations of the test compound. At 6 dpf, zebrafish larvae were fixed by 4% paraformaldehyde and stored overnight at 4° C. Next, the larvae were washed with distilled H2O, incubated with 10× trypsin (2.5%) for 90 minutes at 37° C. under a 5% CO2 atmosphere, and washed with distilled H2O. Then, the isolated lenses were isolated from the zebrafish larvae. Optic disc (OD) branches were visualized and photographed using a fluorescence microscope (Axiovert 200M, Carl Zeiss, Del.). The diameters of the larvae vessels were measured by ImageJ software.

The subject of series [2] is HUVECs. Put plainly: In vitro tube formation assay. Format: cell-based, human. The procedure:
Matrigel (70 μl/well) was coated onto a 96-well plate and polymerized for 30 minutes at 37° C. under a 5% CO2 atmosphere. HUVECs (1.5×10^4 cells/well) and various concentrations of the compound were seeded onto each well of the Matrigel-coated 96-well plate. The cells were then incubated for 8 hours at 37° C. under a 5% CO2 atmosphere. The formation of endothelial cell tubular structures was visualized under an inverted microscope and photographed (Olympus Optical Co. Ltd., Tokyo, Japan). The inhibition rate of tube formation was determined using the following equation. tube formation inhibition rate (%)=[1−(average tube numbersample−average tube numberVEGF(−))/(average tube numberVEGF(+)−average tube numberVEGF(−))]×100 [Equation 1]
The IC50 value was calculated using nonlinear regression analysis using TableCurve 2D v5.01 software (Systat Software Inc., Richmond, Calif., USA).
(§1) The same experiment was carried out for sunitinib as a positive control.
The endothelial cell tubular structure formation assay was performed in the same manner as in the Experimental Example 1.

Series [3] can be described thus: Plasma stability. In kind it is in vitro ADME, human. How it is done:
For measuring plasma stability, the test compound (10 μM) was incubated with human plasma at 37° C. After 30 minutes, the reaction was quenched by adding acetonitrile (containing chlopropamide as internal standard). The samples were vortexed for 5 minutes and centrifuged at 14,000 rpm for 5 minutes at 4° C. Then, the supernatant was analyzed using a LC-MS/MS (Kinetex C18 column, Phenomenex, USA).

For series [4], the system named is HUVECs. Put plainly: HUVEC cell growth assay (MTT). The conditions noted are these: Homo sapiens, HUVEC; MTT, 24 hours, in the presence of VEGF (50 ng/mL). In kind it is cell-based, human. How it is done: Human umbilical vascular endothelial cells (HUVECs) were obtained from the ATCC (Rockville, Md.) and cultured in EGM-2 (Lonza, Walkersville, Md.) supplemented with 10% FBS at 37° C. under a 5% CO2 atmosphere.
Cell growth was assessed by MTT assay. HUVECs (8×10^3 cells/well) were seeded onto a 96-well plate with EGM-2 medium supplemented with 10% FBS for 24 hours. The next day, the culture medium was removed, and the cells were then incubated with serum-free medium for 12 hours. Following serum starvation, the cells were cultured in fresh 2% FBS/EBM-2 medium containing various concentrations of the test compound for 24 hours in the presence of VEGF (50 ng/mL). After the incubation, an MTT solution was added, and the plate was incubated for additional 4 hours. The formazan product was dissolved in DMSO, and the absorbance was detected at 570 nm using a VersaMax ELISA microplate reader (Molecular Devices, Sunnyvale, Calif.).
as §1

Series [5] is described as follows: Aqueous solubility (pH-metric CheqSol). Format: physicochemical. The note with it: 0.15 M KCl, 25° C. The procedure:
The aqueous solubility was measured by the pH-metric CheqSol technique (Sirius Analytical Instruments Ltd.). Experiments was performed in 0.15 M KCl solution under a nitrogen atmosphere, at 25° C., using standardized 0.5 M HCl and 0.5 M KOH solutions.

Series [6] has as its system VEGFR2-mediated PI3K/AKT/eNOS and SRC/FAK signaling pathway. Put plainly: Biomarker analysis (immunoblot) in VEGF-stimulated HUVECs. Format: cell-based, human. The conditions noted are these: FIG. 2. The procedure:
The harvested cells were lysed by 2× sample loading buffer (250 mM Tris-HCl, pH 6.8; 4% SDS; 10% glycerol; 0.006% bromophenol blue; 2% β-mercaptoethanol; 50 mM sodium fluoride; and 5 mM sodium orthovanadate). The protein concentration was measured, and equal amounts of protein samples were subjected to 6-15% SDS-PAGE. The separated proteins were transferred to PVDF membranes (Millipore, Bedford, Mass.), which were then incubated with primary antibodies diluted in 2.5% BSA in TBST (1:500-1:1000) overnight at 4° C. The membranes were then washed three times with TBST and incubated with the corresponding secondary antibodies. Protein bands were detected with an enhanced chemiluminescence detection kit (Intron, Daejeon, Korea) and an LAS-4000 Imager (Fuji Film Corp., Tokyo, Japan).
The phosphorylation of VEGFR2 (Tyr1175) affects the activation of PI3K signaling, which leads to an increase in vascular permeability. In the VEGF signaling pathway, SRC kinases are downstream of VEGFR2 and regulate vascular permeability and angiogenesis. The activation of FAK is also an important contributor markedly involved in endothelial cell migration, proliferation and adherends junction integrity.
For orientation: A western blot detects proteins with antibodies after separation by electrophoresis.

Series [7] can be described thus: Metabolic stability. In kind it is in vitro ADME, human. How it is done:
The test compound (1 μM) was incubated with human liver microsomes (HLM, 0.5 mg protein/ml) for 5 minutes at 37° C. in 100 mM potassium phosphate buffer (pH 7.4). The reaction was initiated by adding NADPH solution and incubated for 30 minutes. To terminate the reaction, acetonitrile (containing chlopropamide as internal standard) was added and centrifuged at 14,000 rpm for 5 minutes at 4° C. Then, the supernatant was analyzed using a LC-MS/MS (Kinetex C18 column, Phenomenex, USA).

Series [8] in a line: pKa. Format: physicochemical.
The nature of series [9]: MDCK permeability. The conditions noted are these: dog, MDCK, pH 7.4; 10 μM, apical to basolateral. In kind it is in vitro ADME, canine. The procedure:
(§2) The permeability was examined using Madin-Darby canine kidney (MDCK) cell line. The MDCK cell line was acquired from the American Type Culture Collection (Manassas, Va.). The cells were seeded in 12 well plates and allowed to grow for 7 days at 37° C. under a 5% CO2 atmosphere. The MDCKI monolayers were equilibrated for 30 minutes in transport buffer (10 mM glucose, 4 mM sodium bicarbonate, HBSS with 1 mM HEPES, pH 7.4) at 37° C. under a 5% CO2 atmosphere prior to the experiment. The permeability of the test compound was examined at 10 μM (with a final DMSO percentage of 1%) in the apical to basolateral (A-to-B) direction. The concentration was analyzed by LC-MS/MS. The apparent permeability (Papp, A-B) was calculated using the following equation 2.
(§3) wherein, dQ/dt is the rate of compound appearance in the receiver compartment (Q is the quantity of compound), C0 is the concentration in the donor compartment, and A is the surface area of the insert.

Series [10] deals with Madin-Darby canine kidney (MDCK) cell line. Put plainly: MDCK permeability. Format: in vitro ADME. The note with it: in words. The procedure: as §2, §3
The test system of series [11] is HUVECs. Kind of series: Scratch wound migration assay. Format: cell-based, human. The note with it: 24 hours, concentration-dependent, FIG. 1. The procedure:
The scratch wound migration assay was performed as follows.
HUVECs were allowed to grow at 90% confluence in 12-well plates pre-coated with 0.2% gelatin and were then incubated for 24 hours. After the cells were attached, they were wounded by scratching with a 0.2 mL pipette tip. The plates were then washed with serum-free medium. Fresh medium was replaced with 2% FBS/EBM-2 medium containing various concentrations of the test compound. The cells were incubated for 24 hours, and images were recorded using an inverted phase-contrast light microscope (Olympus Optical Co. Ltd., Tokyo, Japan).

Take `CCc1ccc2nc(C(c3ccc(OC)c(OC)c3)n3cc(CCN4CCCCC4)nn3)sc2c1` (stereo not drawn) [Compound I-7, 2-((3,4-dimethoxyphenyl)(4-(2-(piperidin-1-yl)ethyl)-1H-1,2,3-triazol-1-yl)methyl)-6-ethylbenzo[d]thiazole]: in series [1] (130 mM glucose, 3 to 6 dpf, concentration-dependent, FIG. 3), the “increase in hyaloid vessel diameters induced by HG” value was “suppressed”. In [1] (high glucose, 2.5 μM), the “hyaloid vessel diameters in the optic disc area” value is listed as “markedly reduced”. The “enhancement of tube formation capacity by VEGF” value in [2] (HUVECs, concentration-dependent, FIG. 1) is “inhibited”. Further, the concentration for half-maximal inhibition (IC50) was found to be 0.631 µM in [2] (Homo sapiens, HUVEC, HUVECs on Matrigel, 8 hours, VEGF-induced tube formation) and 47.5 µM in [4]. The “Selectivity Index (SI)” value in series [2] (ratio of the IC50 for HUVEC cell growth to the IC50 for tube formation) came out at 75.3. Further, the “plasma stability” value in series [3] (10 μM, human plasma, 37° C., remaining after 30 minutes) is 95%; in series [3] (in words) it was “high”. For the same molecule, the “Aqueous Solubility” value in [5] is 24 µM. In [6] (VEGF-stimulated HUVECs), the “activation of SRC (p-SRC)/FAK (p-FAK)” value is listed as “inhibited”. Besides, in series [6] (VEGF-stimulated HUVECs), the “levels of VEGFR2 (p-VEGFR2) activated by VEGF” value is on record as “suppressed”. In series [6] (pretreatment 30 minutes, VEGF (50 ng/mL) 20 minutes), the “activation of PI3K (p-PI3K), AKT (p-AKT) and eNOS (p-eNOS)” value is listed as “significantly suppressed”. Further, in series [7] (1 μM, human liver microsomes 0.5 mg protein/ml, NADPH, 30 minutes), the “Metabolic Stability” value is 31%. For the same molecule, in [7] (in words, human liver microsomes), the microsomal stability result is reported as “good”. The molecule also showed a pKa in series [8] of 9.24. Besides, the apparent permeability from apical to basolateral (Papp A→B) at 10 μM in series [9] came out at 11 ×10⁻⁶ cm/s. In series [10], the MDCK cell permeability result was “high”. The “enhancement of endothelial cell migration by VEGF” value in series [11] is on record as “inhibited”.
